Experimental data taken from article PMC12043042, “Pseudo‐Ring Methodology to Control the Conformations of Macrocyclic Peptides” (Chemistry (Weinheim an Der Bergstrasse, Germany), 2025).
Entries after “also recorded” stand apart in the source; their conditions may differ. Where a SMILES comes first, the peptide text is derived from it.

Assays:
Format in all cases: physicochemical
[1] = Solubility in DMSO / organic solvents, determined visually; settings: room temperature, concentration of 10 mg/mL (ca. 10 mg/mL for NMR)
From the text: We considered building blocks 1–3 as Fmoc‐protected pseudo‐ring building blocks that could be implemented into the Fmoc SPPS approach. The building block 1 was readily prepared from 3‐methyl SA (see Supporting Information). […] The building block 3 was made from commercially available 7‐carboxyindole over seven steps. This procedure was scalable and required no chromatographic purifications (see Supporting Information). With 1 and 3 in hand, we turned our attention towards their application in SPPS. […] Through cyclization of the linear pentafluorophenol (PFP) ester at high dilution in DMF with DIPEA, cyclic peptides 4 (25% overall yield) and 5 (28% overall yield) were obtained from building block 1. The cyclic peptides 6 (17% overall yield) and 7 (21% overall yield) were prepared from building block 3 (Figure 3a,b). At the same time, we synthesized cyclic peptide controls devoid of the pseudo‐ring core through a conventional Fmoc SPPS strategy (Figure 3c) with a Gly‐Gly in place of the pseudo‐ring scaffold. Similarly, we prepared peptides 10 and 11, which represent depeptidized homodetic sequences that contain a backbone‐embedded arene that lacks the X─H pseudo‐ring hydrogen bond donor (Figure 3c). To draw further comparison between pseudo‐ring‐containing and regular heterocycle‐containing peptides, we attempted to synthesize the indole‐containing analogues of peptides 6 and 7 (see Supporting Information). […] During the preparation of cyclic peptides 4–11, we noticed that macrocycles devoid of a pseudo‐ring were frustratingly insoluble in all organic solvents as well as in water. As result, these peptides (8–11) were purified by hot trituration in methanol/water. The solubilities/lipophilicities of peptides 4–11 will be discussed later in this paper. […]
Reversed‐phase HPLC retention times have proven to be a useful metric in determining the permeability of peptide macrocycles, as longer retention times typically equate to lower aqueous solubility, lower polarity, and increased lipophilicity.^[ [34], [35], [36], [37] ^] We were keen to use these HPLC retention times as a tool to assess the modulation of lipophilicity of the pseudo‐ring‐containing macrocycles. At the same time, we were interested in collecting solubility measurements for each macrocycle in both organic solvents (DMSO) as well as in water by visually determining each macrocycle's solubility. Our analysis began with the proteinogenic peptides 8 and 9 (Figure 6a). From the NMR studies, we recognized that these peptides had extremely poor solubility in d6 ‐DMSO (Figure 6c). […] HPLC analysis of these peptides confirmed that proteinogenic sequences correspond to extremely polar peptides. On a 15‐min HPLC gradient (from 5% MeCN/H2O to 95% MeCN/H2O with 0.1% formic acid), macrocycles 8 and 9 had HPLC retention times of 5.3 min and 4.8 min, respectively. Both 8 and 9 contain similar hydrogen bonding patterns, which is reflected in their similar hydrophilicities and HPLC retention times. Similar results were obtained with peptides 10 and 11 (Figure 6a). […] We were keen to decipher whether the inclusion of either “open” or “closed” pseudo‐ring residues could lead to noticeable solubility and lipophilicity differences. […] This increase in […] likely results from the now exposed polar phenolic OH group paired with the disrupted IMHB networks that were present within the backbone of 4. […] With this in mind, we began analyzing our dicarbonyl‐containing macrocycles 6 and 7. […] Similarly, this marks the first instance in which we have been able to access a class of macrocycles with chameleonic behavior whereby we can reliably access both “open” and “closed” forms using pseudo‐rings. […] Unique to this series of macrocycles, the “open” pseudo‐ring macrocycle 7 is extremely hydrophilic.

[2] = Reversed-phase HPLC retention time as measure of lipophilicity; settings: 15-min gradient from 5% MeCN/H2O to 95% MeCN/H2O with 0.1% formic acid, longer time = more lipophilic
From the text: Reversed‐phase HPLC retention times have proven to be a useful metric in determining the permeability of peptide macrocycles, as longer retention times typically equate to lower aqueous solubility, lower polarity, and increased lipophilicity.^[ [34], [35], [36], [37] ^] We were keen to use these HPLC retention times as a tool to assess the modulation of lipophilicity of the pseudo‐ring‐containing macrocycles. At the same time, we were interested in collecting solubility measurements for each macrocycle in both organic solvents (DMSO) as well as in water by visually determining each macrocycle's solubility. Our analysis began with the proteinogenic peptides 8 and 9 (Figure 6a). From the NMR studies, we recognized that these peptides had extremely poor solubility in d6 ‐DMSO (Figure 6c). […] HPLC analysis of these peptides confirmed that proteinogenic sequences correspond to extremely polar peptides. On a 15‐min HPLC gradient (from 5% MeCN/H2O to 95% MeCN/H2O with 0.1% formic acid), macrocycles 8 and 9 had HPLC retention times of 5.3 min and 4.8 min, respectively. Both 8 and 9 contain similar hydrogen bonding patterns, which is reflected in their similar hydrophilicities and HPLC retention times. Similar results were obtained with peptides 10 and 11 (Figure 6a). […]

[3] = Solubility in water, determined visually; settings: concentration of 10 mg/mL
From the text: We considered building blocks 1–3 as Fmoc‐protected pseudo‐ring building blocks that could be implemented into the Fmoc SPPS approach. The building block 1 was readily prepared from 3‐methyl SA (see Supporting Information). […] The building block 3 was made from commercially available 7‐carboxyindole over seven steps. This procedure was scalable and required no chromatographic purifications (see Supporting Information). With 1 and 3 in hand, we turned our attention towards their application in SPPS. […] Through cyclization of the linear pentafluorophenol (PFP) ester at high dilution in DMF with DIPEA, cyclic peptides 4 (25% overall yield) and 5 (28% overall yield) were obtained from building block 1. The cyclic peptides 6 (17% overall yield) and 7 (21% overall yield) were prepared from building block 3 (Figure 3a,b). At the same time, we synthesized cyclic peptide controls devoid of the pseudo‐ring core through a conventional Fmoc SPPS strategy (Figure 3c) with a Gly‐Gly in place of the pseudo‐ring scaffold. Similarly, we prepared peptides 10 and 11, which represent depeptidized homodetic sequences that contain a backbone‐embedded arene that lacks the X─H pseudo‐ring hydrogen bond donor (Figure 3c). […]

Structure (SMILES)	Solubility in DMSO (d6-DMSO) [1]	HPLC retention time [2]	Solubility in H2O [3]
CC[C@H](C)[C@@H]1NC(=O)CNC(=O)CNC(=O)[C@H](Cc2ccccc2)NC(=O)CNC(=O)[C@H](C)NC1=O [compound 8] (HELM PEPTIDE1{A.G.F.G.G.I}$PEPTIDE1,PEPTIDE1,1:R1-6:R2$$$V2.0)	could not be fully solubilized	5.3 min	–
C[C@@H]1NC(=O)[C@@H]2CCCN2C(=O)c2cccc(c2O)CNC(=O)[C@H](Cc2ccccc2)NC(=O)CNC1=O [compound 5] (HELM PEPTIDE1{A.G.F.[O=C(c1cccc(CN[*:1])c1O)[*:2]].P}$PEPTIDE1,PEPTIDE1,1:R1-5:R2$$$V2.0)	readily soluble; also recorded: much more soluble in DMSO than their non‐pseudo‐ring counterparts	–	–
C[C@@H]1NC(=O)[C@@H]2CCCN2C(=O)c2cccc(c2N)C(=O)CNC(=O)[C@H](Cc2ccccc2)NC(=O)CNC1=O [compound 7] (HELM PEPTIDE1{A.G.F.[Nc1c(C(=O)CN[*:1])cccc1C(=O)[*:2]].P}$PEPTIDE1,PEPTIDE1,1:R1-5:R2$$$V2.0)	highly soluble	–	highly soluble
C[C@@H]1NC(=O)[C@@H]2CCCN2C(=O)c2cccc(c2)CNC(=O)[C@H](Cc2ccccc2)NC(=O)CNC1=O [compound 11] (HELM PEPTIDE1{[O=C(c1cccc(CN[*:1])c1)[*:2]].P.A.G.F}$PEPTIDE1,PEPTIDE1,1:R1-5:R2$$$V2.0)	could be solubilized in d6 ‐DMSO at room temperature only after sonication	–	–
CC[C@H](C)[C@@H]1NC(=O)c2cccc(c2O)CNC(=O)[C@H](Cc2ccccc2)NC(=O)CNC(=O)[C@H](C)NC1=O [compound 4] (HELM PEPTIDE1{A.G.F.[O=C(c1cccc(CN[*:1])c1O)[*:2]].I}$PEPTIDE1,PEPTIDE1,1:R1-5:R2$$$V2.0)	readily soluble; also recorded: much more soluble in DMSO than their non‐pseudo‐ring counterparts	7.7 min	–
C[C@@H]1NC(=O)[C@@H]2CCCN2C(=O)CNC(=O)CNC(=O)[C@H](Cc2ccccc2)NC(=O)CNC1=O [compound 9] (HELM PEPTIDE1{A.G.F.G.G.P}$PEPTIDE1,PEPTIDE1,1:R1-6:R2$$$V2.0)	could not be fully solubilized	–	–

Second part, the compound after the results:

Solubility in DMSO (d6-DMSO) [1]	HPLC retention time [2]	Solubility in H2O [3]	Structure (SMILES)
poorly soluble	–	–	CC[C@H](C)[C@@H]1NC(=O)c2cccc(c2)CNC(=O)[C@H](Cc2ccccc2)NC(=O)CNC(=O)[C@H](C)NC1=O [compound 10] (HELM PEPTIDE1{[O=C(c1cccc(CN[*:1])c1)[*:2]].I.A.G.F}$PEPTIDE1,PEPTIDE1,1:R1-5:R2$$$V2.0)
highly soluble	–	–	CC[C@H](C)[C@@H]1NC(=O)c2cccc(c2N)C(=O)CNC(=O)[C@H](Cc2ccccc2)NC(=O)CNC(=O)[C@H](C)NC1=O [compound 6] (HELM PEPTIDE1{A.G.F.[Nc1c(C(=O)CN[*:1])cccc1C(=O)[*:2]].I}$PEPTIDE1,PEPTIDE1,1:R1-5:R2$$$V2.0)
